A word on the IC50: it is the concentration that gives 50% inhibition. Read a low IC50 as greater potency in that assay.

The results in this text go back to article PMC12906330 (SLAS discovery : advancing life sciences R & D, 2025).

Holding throughout (format): biochemical
Experiment [1] has as its target T1, FlgE (flagellar hook protein) (Treponema denticola, UniProt Q9RQB6).
T1 sequence (Q9RQB6 11-454): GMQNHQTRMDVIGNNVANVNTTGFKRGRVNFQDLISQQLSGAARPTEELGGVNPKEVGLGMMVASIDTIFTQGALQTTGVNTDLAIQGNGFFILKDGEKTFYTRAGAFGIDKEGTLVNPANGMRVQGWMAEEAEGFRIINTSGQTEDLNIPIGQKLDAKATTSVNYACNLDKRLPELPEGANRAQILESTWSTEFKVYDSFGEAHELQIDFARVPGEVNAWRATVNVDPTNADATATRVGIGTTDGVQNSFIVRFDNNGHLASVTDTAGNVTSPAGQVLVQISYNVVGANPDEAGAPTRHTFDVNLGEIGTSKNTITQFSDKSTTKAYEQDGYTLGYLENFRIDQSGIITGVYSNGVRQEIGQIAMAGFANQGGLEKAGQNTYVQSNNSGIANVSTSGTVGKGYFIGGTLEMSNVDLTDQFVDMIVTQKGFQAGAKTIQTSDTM
Put plainly: ELISA of Lal crosslinking between purified FlgE subunits, dose-response. A general note: An ELISA detects its analyte on a solid surface through an enzyme-linked reagent.

In experiment [2] the target is T1, FlgE (flagellar hook protein). Nature of the experiment: ELISA of Lal crosslinking between purified FlgE subunits.
For experiment [3] the target is unchanged. Put plainly: ELISA of Lal crosslinking between purified FlgE subunits, dose-response. The source holds these as a separate data set.

Compound `Oc1c(Cl)cc(Cl)c(Cl)c1Cc1c(O)c(Cl)cc(Cl)c1Cl` [hexachlorophene] registered an IC50 in experiment [1] of 47.7 µM.
On to `C=CCc1ccc(O)c(-c2ccc(O)c(CC=C)c2)c1` [honokiol], for which the IC50 in experiment [2] worked out at 118 µM.
In experiment [3], `COc1cc(C(=O)NS(=O)(=O)c2ccccc2C)ccc1Cc1cn(C)c2ccc(NC(=O)OC3CCCC3)cc12` [zafirlukast] displayed an IC50 of 92 µM.
